The nature of assay [1]: Rate constant of complex formation with zinc ions (stopped-flow). The assay is classed as physicochemical. Particulars: 1 μM compound, 50 μM zinc ions, 100 mM HEPES buffer (pH 7.4), 25° C. The procedure:
The rate constant of the formation of a complex between zinc ions and each of Compounds 8, 13, 17, and 22 were investigated. Changes with time of fluorescence intensity were measured in a stopped-flow manner after the compound was mixed in 100 mM HEPES buffer (pH 7.4) at 25° C. to adjust the final concentration of the compound to 1 μM and that of zinc ions to 50 μM. The rate constant of complex formation was calculated by using the graph to give 1.6×10^6 M^−1s^−1 for Compound 8, 1.4×10^6 M^−1s^−1 for Compound 13, 7.8×10^4 M^−1s^−1 for Compound 17, and 1.3×10^6 M^−1s^−1 for Compound 22. […] Therefore, it is understood that zinc ions can be detected in a very short period of time, and rapid changes in the concentration of zinc ions can also be detected by using these compounds.

A further assay concerns CHO cells. Kind of assay: Fluorescence intensity when zinc ions were intracellularly introduced into CHO cells. It counts as cell-based. The procedure: Changes in fluorescence intensity were investigated when zinc ions in various concentrations were intracellularly introduced by using CHO cells. […] After the cells were washed with PBS(−) 3 times, the reagent was added as shown in the following Table 1, and changes in fluorescence intensity were measured.

For assay [2] the following is noted: read-out: Kd value for zinc ions; cited from earlier work.

pKd: −log10 of the molar value.

In general, pKd refers to the Kd on a negative log10 scale, so that one unit is a factor of ten.

In the case of `O=C(O)c1ccc(NCCNCc2ccccn2)cc1-c1c2ccc(=O)cc-2oc2cc(O)ccc12` [Compound 8], the “rate constant of complex formation” value in assay [1] amounted to 1.6e+06 M⁻¹ s⁻¹.
On the same count and under the same terms, with `O=C(O)c1ccc(NCCN(CCc2ccccn2)Cc2ccccn2)cc1-c1c2ccc(=O)cc-2oc2cc(O)ccc12` [Compound 13] the figure was 1.4e+06 M⁻¹ s⁻¹.
As for `O=C(O)c1ccc(NCCN(CCc2ccccn2)CCc2ccccn2)cc1-c1c2ccc(=O)cc-2oc2cc(O)ccc12` [Compound 17], the “rate constant of complex formation” value in assay [1] amounted to 78000 M⁻¹ s⁻¹.
Take `Cc1cccc(CN(CCNc2ccc(C(=O)O)c(-c3c4ccc(=O)cc-4oc4cc(O)ccc34)c2)Cc2ccccn2)n1` [Compound 22]: the “rate constant of complex formation” value in assay [1] came to 1.3e+06 M⁻¹ s⁻¹.
In the case of `CC(=O)Oc1ccc2c(c1)Oc1cc(OC(C)=O)ccc1C21OC(=O)c2ccc(NCCN(CCc3ccccn3)Cc3ccccn3)cc21` [Compound 28], the “change of fluorescence intensity of dyed cells with elevation of zinc ions introduced” value with CHO cells (CHO cells, 100 μM pyrithione, 0.3-300 μM ZnSO4) was “increased stepwise”.
Take `CC(=O)Oc1ccc2c(c1)Oc1cc(OC(C)=O)ccc1C21OC(=O)c2ccc(NCCN(Cc3ccccn3)Cc3ccccn3)cc21` [ZnAF-2DA, reference compound]: the “zinc ion concentration at which fluorescence intensity reached the plateau” value in the assay with CHO cells (CHO cells dyed with 10 μM probe, 100 μM pyrithione plus ZnSO4) is 3 µM. Moreover, the negative-log Kd (pKd) in assay [2] is 8.57.

The record behind these values is patent publication US7696245B2, “Fluorescent probe for zinc” (Sekisui Medical Co., Ltd., priority 2003, dated 2010).
